Measured values from patent publication US4414408A, “Phenolic antioxidants” (The Goodyear Tire & Rubber Company, priority 1982, dated 1983).

Assay: Oxygen absorption (time to absorb one percent oxygen)
Conditions: 1.0 part antioxidant in SBR-1006

C=CC(=O)Oc1c(Cc2cc(C)cc(C(C)(C)C)c2O)cc(C)cc1C(C)(C)C [Example 8, 2-(2-hydroxy-3-tert.butyl-5-methylbenzyl)-4-methyl-6-tert.butyl phenyl acrylate]
Hours to Absorb 1% O2: 315 h
